Reference: PubChem BioAssay (NCI)
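Step 1: Grow cells in 96-well plates. Step 2: Expose to compound for 48 hours at 5 concentrations. Step 3: Interpolate endpoints linearly; if unreached, use highest concentration. Definition used: TGI = concentration required for complete inhibition of growth.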

Experiments:
Assay in all cases: inhibition of tumour cell growth, NCI panel, 48 h
EKVX NSCLC = system: EKVX NSCLC
KM12 colon = system: KM12 colon
SNB-19 CNS = system: SNB-19 CNS
MCF7 breast = system: MCF7 breast
OVCAR-5 ovarian = system: OVCAR-5 ovarian
ACHN renal = system: ACHN renal
CAKI-1 renal = system: CAKI-1 renal
HL-60(TB) leukemia = system: HL-60(TB) leukemia
NCI-H226 lung = system: NCI-H226 lung
UACC-257 melanoma = system: UACC-257 melanoma
NCI-H460 lung = system: NCI-H460 lung
U251 CNS = system: U251 CNS
A549 NSCLC = system: A549 NSCLC
BT-549 breast = system: BT-549 breast
NCI-H522 lung = system: NCI-H522 lung
MDA-N = system: MDA-N
HCC-2998 colon = system: HCC-2998 colon
CCRF-CEM leukemia = system: CCRF-CEM leukemia
COLO 205 colon = system: COLO 205 colon
DU-145 prostate = system: DU-145 prostate

Measured: TGI

COc1cc(/C=C/C2=NN(c3cccc(S(=O)(=O)O)c3)C3(C2)C(Cl)C(=O)N3c2nc3ccccc3s2)ccc1O (centres undefined)
42.6 µM: UACC-257 melanoma
42.3 µM: EKVX NSCLC
40.7 µM: U251 CNS
29.1 µM: BT-549 breast
38.2 µM: HCC-2998 colon
37.9 µM: OVCAR-5 ovarian
33 µM: CAKI-1 renal
30.9 µM: ACHN renal
42.5 µM: HL-60(TB) leukemia
30.4 µM: NCI-H522 lung
60.3 µM: MDA-N
40.4 µM: COLO 205 colon
41.2 µM: KM12 colon
52.6 µM: NCI-H226 lung
42.2 µM: CCRF-CEM leukemia
not listed: DU-145 prostate
> 100 µM: all other assays above

COC1OC(COC(=O)NCCCCC(=O)C(F)(F)F)C(O)C(O)C1O (centres undefined)
not listed: EKVX NSCLC | NCI-H226 lung | NCI-H522 lung
> 100 µM: all other assays above

O=C(NCCNCCO)N/N=C/c1ccc([N+](=O)[O-])cc1
not listed: EKVX NSCLC
> 100 µM: all other assays above

CN(C)c1ccc(/C=C/c2cc[n+](C)c3ccccc23)cc1
17 µM: HCC-2998 colon
14.3 µM: NCI-H460 lung
11.5 µM: NCI-H522 lung
3.2 µM: COLO 205 colon
16.2 µM: NCI-H226 lung
15.9 µM: U251 CNS
> 61.9 µM: CCRF-CEM leukemia
52.2 µM: DU-145 prostate
24.9 µM: OVCAR-5 ovarian
16.5 µM: SNB-19 CNS
12.2 µM: CAKI-1 renal
7.75 µM: MCF7 breast
10.7 µM: KM12 colon
8.44 µM: BT-549 breast
9.35 µM: MDA-N
> 100 µM: EKVX NSCLC
8.57 µM: UACC-257 melanoma
> 90.8 µM: A549 NSCLC
36.5 µM: ACHN renal

NC(N)=NC(N)=Nc1c(F)c(F)c(F)c(F)c1F
not listed: HL-60(TB) leukemia | HCC-2998 colon | CCRF-CEM leukemia
> 100 µM: all other assays above

NC1CNC(=O)c2cscc21 (centres undefined)
not listed: NCI-H226 lung
> 100 µM: all other assays above

CCOC(=O)COc1ccc(/C=C/C(=O)c2ccc(OC)cc2)cc1
75.1 µM: MDA-N
73.6 µM: NCI-H522 lung
76.8 µM: DU-145 prostate
48.7 µM: HCC-2998 colon
34.6 µM: U251 CNS
57.3 µM: UACC-257 melanoma
not listed: CAKI-1 renal | NCI-H226 lung | NCI-H460 lung
> 100 µM: all other assays above

NCCCc1ccc2oc3ccccc3c2c1
32.8 µM: COLO 205 colon
31 µM: SNB-19 CNS
29.6 µM: MDA-N
34.1 µM: NCI-H460 lung
32.1 µM: ACHN renal | UACC-257 melanoma
35.5 µM: NCI-H226 lung
32.6 µM: CCRF-CEM leukemia
37.2 µM: BT-549 breast
31.2 µM: HL-60(TB) leukemia
34.2 µM: MCF7 breast
40 µM: NCI-H522 lung
22.5 µM: HCC-2998 colon
33.4 µM: U251 CNS
29.7 µM: CAKI-1 renal
26.2 µM: OVCAR-5 ovarian
30.6 µM: DU-145 prostate
32.9 µM: A549 NSCLC

Cc1c2cnccc2nc2[nH]c3ccncc3c12
6.06 µM: NCI-H460 lung
94.9 µM: UACC-257 melanoma
43.2 µM: MDA-N
24.9 µM: CAKI-1 renal
41.8 µM: KM12 colon
40.5 µM: OVCAR-5 ovarian
32.6 µM: CCRF-CEM leukemia
96.9 µM: EKVX NSCLC
13.6 µM: ACHN renal
> 100 µM: DU-145 prostate | SNB-19 CNS | U251 CNS | A549 NSCLC | COLO 205 colon
18.5 µM: NCI-H522 lung
61.9 µM: HL-60(TB) leukemia
63.8 µM: BT-549 breast

N#Cc1ccc(OCc2ccc3nc(-c4ccccc4)c(Cl)nc3c2)cc1
not listed: NCI-H226 lung
> 100 µM: all other assays above

C1=NCCOCCN=Cc2ccccc2OCc2cccc(n2)COc2ccccc21
20.7 µM: DU-145 prostate
19.4 µM: MCF7 breast
16.3 µM: HL-60(TB) leukemia
19.1 µM: BT-549 breast
6.96 µM: MDA-N
21.5 µM: UACC-257 melanoma
18.2 µM: U251 CNS
not listed: CAKI-1 renal | NCI-H226 lung | HCC-2998 colon
> 25 µM: all other assays above

N#Cc1c2c([nH]c(=O)c1C#N)CCCC2
not listed: NCI-H522 lung
> 100 µM: all other assays above

Cc1ccc(C(=O)C#Cc2cn(C3CC(O)C(CO)O3)c(=O)[nH]c2=O)cc1 (centres undefined)
23.9 µM: NCI-H522 lung
not listed: OVCAR-5 ovarian | HL-60(TB) leukemia | CCRF-CEM leukemia
> 100 µM: all other assays above

COc1ccc(-c2c(C#N)c(S)n(C3OC(CO)C(O)C(O)C3O)c(=O)c2C#N)cc1 (centres undefined)
not listed: EKVX NSCLC | U251 CNS | COLO 205 colon
> 100 µM: all other assays above

CCOC(=O)C(NC(=O)NC(C(=O)OCC)C(=O)OCC)C(=O)OCC
not listed: KM12 colon | HL-60(TB) leukemia | UACC-257 melanoma | CCRF-CEM leukemia | COLO 205 colon
> 100 µM: all other assays above

COC(=O)c1cc(-c2c[nH]cc2C(=O)OCc2ccccc2)cn1S(=O)(=O)c1ccc(C)cc1
not listed: HL-60(TB) leukemia | NCI-H226 lung | U251 CNS
> 100 µM: all other assays above

CO[C@@H](c1ccccc1)[C@H](O)[C@](O)(c1ccccc1)P(=O)(OC)OC
not listed: MCF7 breast
> 100 µM: all other assays above

O=C1N[C@@H]([C@H](CCCCCO)OC(=O)c2ccccc2)CO1
not listed: NCI-H522 lung | HCC-2998 colon | COLO 205 colon
> 100 µM: all other assays above

Cc1cc(C2(c3cc(C)c(O)c(C(=O)O)c3)OS(=O)(=O)c3ccccc32)cc(C(=O)O)c1O
not listed: HCC-2998 colon | CCRF-CEM leukemia
> 100 µM: all other assays above

O=C1C=CC(=O)c2c(O)c(N[C@@H](Cc3ccccc3)C(=O)OCc3ccccc3)c(Cl)c(O)c21
6.71 µM: COLO 205 colon
not listed: MCF7 breast
> 10 µM: all other assays above

Cn1c(COC(=O)NC2CCCCC2)c(COC(=O)NC2CCCCC2)c2ccc3cc(Cl)c(Cl)cc3c21
> 100 µM: EKVX NSCLC | NCI-H226 lung | A549 NSCLC
25.4 µM: MDA-N
16.9 µM: MCF7 breast
11.3 µM: CCRF-CEM leukemia
24.6 µM: COLO 205 colon
17.3 µM: NCI-H460 lung
34.5 µM: OVCAR-5 ovarian
26.4 µM: HL-60(TB) leukemia
32.3 µM: ACHN renal
10.4 µM: CAKI-1 renal
36.4 µM: KM12 colon
26.1 µM: SNB-19 CNS
84.7 µM: DU-145 prostate
26.6 µM: HCC-2998 colon
29 µM: UACC-257 melanoma
30.5 µM: BT-549 breast

CN(/N=C/c1cccs1)c1ccc([N+](=O)[O-])cc1[N+](=O)[O-]
not listed: OVCAR-5 ovarian | NCI-H226 lung
> 100 µM: all other assays above

CC1CC/C(=C\c2ccc(N(C)C)cc2)C(=O)/C1=C/c1ccc(N(C)C)cc1 (centres undefined)
not listed: SNB-19 CNS | HL-60(TB) leukemia | NCI-H460 lung | DU-145 prostate
> 100 µM: all other assays above

CSCC[C@H]1C(=O)N=C(N)N1C(=O)OCc1ccccc1
44.3 µM: CAKI-1 renal
84.1 µM: NCI-H226 lung
60.9 µM: BT-549 breast
46.5 µM: NCI-H522 lung
39.7 µM: COLO 205 colon
44.8 µM: HL-60(TB) leukemia
not listed: A549 NSCLC | CCRF-CEM leukemia
> 100 µM: all other assays above

O=Cc1cc2c(o1)C(=O)c1ccccc1C2=O
2.76 µM: COLO 205 colon
0.427 µM: DU-145 prostate
6.4 µM: CCRF-CEM leukemia
3.25 µM: OVCAR-5 ovarian
2.27 µM: NCI-H226 lung
1.62 µM: SNB-19 CNS
0.581 µM: MCF7 breast
1.5 µM: UACC-257 melanoma
7.96 µM: ACHN renal
4.54 µM: KM12 colon
2.39 µM: NCI-H460 lung
1.15 µM: HL-60(TB) leukemia
7.46 µM: EKVX NSCLC
2.73 µM: U251 CNS
3.02 µM: A549 NSCLC
0.352 µM: MDA-N
3.43 µM: HCC-2998 colon
2.12 µM: BT-549 breast
9.54 µM: CAKI-1 renal

Nc1ccc(S(=O)(=O)c2ccc(NC(=O)c3cccnc3)cc2)cc1
not listed: CCRF-CEM leukemia
> 100 µM: all other assays above
